In patent US6596863B2, “Medical composition containing nitroetheneamine Derivative or salt there of as active constituent” (Ishihara Sangyo Kaisha, Ltd., priority 1998, dated 2003):
Like-named read-outs stand apart in the source and are kept apart here.

Experiments:
[1] = molecular target: T1, human MMP-9 (gelatinase B) (Homo sapiens, UniProt P14780); test: Inhibition activity against human MMP-9 (gelatinase B), fluorescent peptide substrate; assay type: biochemical
T1 construct: endogenous in cells; host or cells: HT1080 human fibrosarcoma cells (ATCC CCL-121), PMA-stimulated; enzyme purified from the culture supernatant
T1 sequence (P14780 107-707 limits assumed): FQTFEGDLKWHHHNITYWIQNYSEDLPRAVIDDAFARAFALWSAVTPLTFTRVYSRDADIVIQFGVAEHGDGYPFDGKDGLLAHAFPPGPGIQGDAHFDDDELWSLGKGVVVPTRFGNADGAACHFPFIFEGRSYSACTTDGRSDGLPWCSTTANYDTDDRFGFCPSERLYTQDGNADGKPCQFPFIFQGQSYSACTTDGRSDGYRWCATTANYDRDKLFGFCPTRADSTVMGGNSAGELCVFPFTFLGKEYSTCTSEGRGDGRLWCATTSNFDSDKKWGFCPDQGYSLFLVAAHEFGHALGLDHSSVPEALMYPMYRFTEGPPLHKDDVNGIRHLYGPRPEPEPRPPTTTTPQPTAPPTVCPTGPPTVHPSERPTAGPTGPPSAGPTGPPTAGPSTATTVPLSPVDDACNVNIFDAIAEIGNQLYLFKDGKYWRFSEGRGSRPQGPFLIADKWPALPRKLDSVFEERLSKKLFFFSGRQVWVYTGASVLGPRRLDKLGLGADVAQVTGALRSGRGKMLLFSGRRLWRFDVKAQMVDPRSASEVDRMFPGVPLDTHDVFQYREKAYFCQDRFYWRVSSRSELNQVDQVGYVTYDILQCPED
Procedure: Human MMP-9 (gelatinase B) was purified by the following method from a culture supernatant of HT1080 cells (human fibrosarcoma).
2.5×10^6 HT1080 cells (ATCC CCL-121, purchased from Dainippon Seiyaku) were inoculated to a tissue culture dish (Code No. 3020-100, manufactured by Iwaki Glass Co., Ltd.) having a diameter of 10 cm and containing 10 ml of Dulbecco's Modified Eagle Medium (DME, No. D-5648, manufactured by Sigma Co.) containing 10% fetal bovine serum (FBS: REHATUIN™, Code No. 1020-90, manufactured by Intergen Co.) and cultured for 72 hours at 37° C. in an atmosphere comprising 5% of CO2 and 95% of air (Carbon Dioxide Incubator LNA-122D Model, manufactured by Tabai Co.). Then, the medium was changed to 10 ml of a DME culture medium containing no FBS, and phorbol 12-myristate 13-acetate (PMA, code No. 163-114851, manufactured by Wako Pure Chemical Industries, Ltd.) was added so that the final concentration became 10 ng/ml. Under the same conditions, the culturing was carried out for further 20 hours, whereupon the culture supernatant was collected and subjected to cool centrifugation at 4° C. for 5 minutes (cool centrifugal separator, manufactured by Hitachi) to remove cell fragments.
The pH of a conditioned medium (50 ml) containing MMP-9, thus prepared, was adjusted to 8.0 with 0.2N NaOH. […] Namely, the above-mentioned conditioned medium was passed through DEAE-Sephacel (manufactured by Pharmacia, gel volume: about 35 ml) preliminarily equilibrated with 50 mM Tris-HCl, pH 8.0 (A buffer), and a non-adsorption fraction was collected. Then, it was added to Dye Matrix Gel Green A (manufactured by Amicon Co., gel volume: about 6 ml) preliminarily equilibrated with 50 mM Tris-HCl, pH 7.5/10 MM CaCl2/0.05% Brij 35/0.02% NaN3 (B buffer) and thoroughly washed with the same buffer, whereupon the adsorbed enzyme was eluted with a 1M NaCl-containing B buffer. About 7.5 ml of the eluted fraction was diluted twice with the B buffer and added to Gelatin-Sepharose 4B (manufactured by Pharmacia, gel volume: about 6 ml) preliminarily equilibrated with a 0.5 M NaCl-containing B buffer. It was thoroughly washed with a 0.5M NaCl-containing B buffer, and eluted with the B buffer containing 10% of dimethylsulfoxide (DMSO) and 0.5 M of NaCl. 5.5 ml of the eluted fraction was dialyzed against a 0.1 M NaCl-containing B buffer to obtain 5.2 ml of a purified enzyme solution. The purified MMP-9 standard product was confirmed to have a single band of 92 kDa by a protein staining by SDS electrophoresis, and further, it was confirmed to have an adequate gelatin decomposing activity by gelatinzymography (carried out in accordance with a method by Howard E. W. et al; Journal Biological Chemistry, Vol. 266, 13064-13069, 1991) and to have an adequate substrate decomposing activity by the after-mentioned measurement employing a fluorescent peptide substrate specific to MMP.
The inhibition activity against human MMP-9 was measured by the following method in accordance with the method by C. G. Knight et al (FEBS Letters, Vol, 296, 263-266, 1992) employing a fluorescent peptide substrate (7-methoxycoumarin-4-yl)Acetyl-Pro-Leu-Gly-Leu-(3-[2,4-dinitrophenyl]—Ala—Arg-NH2, Code 3163-VC, manufactured by Peptide Institute, Inc.
Further, as the case requires, commercially available human MMP-9 purified enzyme (No. YU-18003, manufactured by Kabushiki Kaisha Yagai Chuo Kenkyusho; used in a final concentration of from 0.0125 to 0.025 unit/ml, No. CC079, manufactured by Chemicon International, Inc.; used in a final concentration of 0.2 μg/ml) was used for the tests. […]

[2] = compounds of the formula (I), 1st measurement, read-out: MMP-9 inhibition activities IC50, 1st
[3] = compounds of the formula (I), 2nd measurement, read-out: MMP-9 inhibition activities IC50, 2nd
[4] = compounds of the formula (I), average of 1st and 2nd (or single measurement), read-out: MMP-9 inhibition activities IC50, Average

SMILES	melting point	IC50 [1, 2] [µM]	IC50 [1, 3] [µM]	IC50 [1, 4] [µM]	IC50 ([1]; intermediates, compounds of the formula (IV), 1st measurement, read-out: MMP-9 inhibition activities IC50, 1st) [µM]	IC50 ([1]; intermediates, compounds of the formula (IV), average of 1st and 2nd (or single measurement), read-out: MMP-9 inhibition activities IC50, Average) [µM]
CNC(=C[N+](=O)[O-])NN=Cc1ccc2ccccc2c1 [compound 135]	190 °C (dec.)	28.2	20.4	24.3	–	–
COCCNC(=C[N+](=O)[O-])NNc1cc(C(F)(F)F)cc(Cl)n1 [compound 160]	175 to 178 °C (dec.)	9.4	–	9.4	–	–
O=[N+]([O-])C=C(NCCCCO)NNc1cc(C(F)(F)F)cc(Cl)n1 [compound 199]	150 to 151 °C	5.7	6.2	6	–	–
CNC(=C[N+](=O)[O-])NNc1cc(C(F)(F)F)cc(OCCN(C)C)n1 [Compound No. 100]	125 to 126 °C (dec.)	38.7	26	32.4	–	–
CNC(=C[N+](=O)[O-])NNc1cc(C(F)(F)F)cc(OC)n1 [Compound No. 98, N-methyl-1-(2-(4-trifluoromethyl-6-methoxy-2-pyridyl)hydrazino)-2-nitroetheneamine]	193 °C (dec.)	8.8	7.8	8.3	–	–
CNC(=C[N+](=O)[O-])NNc1cc(C(F)(F)F)cc(OCc2ccccc2Cl)n1 [compound 174]	162 °C (dec.)	9	–	9	–	–
CNC(=C[N+](=O)[O-])NNc1cc(C(F)(F)F)cc(C(F)(F)F)n1 [compound 44]	192 to 193 °C (dec.)	19.6	26.8	23.2	–	–
NNC(=C[N+](=O)[O-])Nc1ccc(OC(F)(F)F)cc1 [Compound No. 61, N-(1-hydrazino-2-nitroethenyl)-4-trifluoromethoxyaniline]	161 °C (dec.)	39.7	42.2	40.9	–	–
CNC(=C[N+](=O)[O-])NNc1cccc(C(F)(F)F)n1 [compound 168]	197 °C (dec.)	7.1	7.3	7.2	–	–
CNC(=C[N+](=O)[O-])NN=Cc1ccc([N+](=O)[O-])cc1 [compound 138]	232 °C (dec.)	22.3	15.7	19	–	–
CCOC(=O)c1ccc(NC(=C[N+](=O)[O-])NN)cc1 [compound 74]	155 °C (dec.)	49.6	49.4	49.5	–	–
CNC(=C[N+](=O)[O-])NN(C)c1cccc(C(F)(F)F)n1 [compound 39]	191 to 192 °C (dec.)	16.1	29.2	22.7	–	–
CCOc1cc(C(F)(F)F)cc(NNC(=C[N+](=O)[O-])NC)n1 [compound 106]	185 to 186 °C (dec.)	11.7	8.4	10.1	–	–
CNC(=C[N+](=O)[O-])NNc1nc2ccccc2s1 [compound 132]	158 °C (dec.)	1.2	2.4	1.8	–	–
CNC(=C[N+](=O)[O-])NNc1ccc(C(F)(F)F)cc1 [compound 40]	190 °C	13.5	28.7	21.1	–	–
CNC(=C[N+](=O)[O-])NNc1ccnc2cc(Cl)ccc12 [compound 146]	210 °C (dec.)	18.4	29.4	23.9	–	–
CNC(=C[N+](=O)[O-])NNc1cc(OC)nc(OC)n1 [compound 101]	160 to 162 °C (dec.)	37.8	18.5	28.2	–	–
NNC(=C[N+](=O)[O-])NS(=O)(=O)c1ccccc1 [compound 156]	210 °C (dec.)	38.3	41.8	40.1	–	–
CSC(=C[N+](=O)[O-])NS(=O)(=O)c1ccc2ccccc2c1 [Intermediate 61]	205 °C (dec.)	–	–	–	8.2	8.2
CNC(=C[N+](=O)[O-])NNc1cc(C(F)(F)F)cc(OCCSC)n1 [compound 189]	94 °C	11.1	–	11.1	–	–
CNC(=C[N+](=O)[O-])NNc1cc(C(F)(F)F)cc(OCCOC(C)C)n1 [compound 196]	167 °C (dec.)	11.2	–	11.2	–	–
O=[N+]([O-])C=C(NNc1cc(C(F)(F)F)cc(Cl)n1)NS(=O)(=O)c1ccccc1 [compound 159]	170 to 173 °C (dec.)	7.9	–	7.9	–	–
CC(=C(NNc1cc(C(F)(F)F)cc(Cl)n1)NS(C)(=O)=O)[N+](=O)[O-] [compound 165]	30 to 33 °C	3.2	–	3.2	–	–
CNC(=C[N+](=O)[O-])NN=C(C)c1cccnc1 [compound 34]	181 °C (dec.)	30.2	26.9	28.6	–	–
CSc1ccc(NC(=C[N+](=O)[O-])NN)cc1 [compound 72]	177 °C (dec.)	40.8	41.5	41.2	–	–
CNC(=C[N+](=O)[O-])NNc1cc(C(F)(F)F)nc(C(F)(F)F)c1 [compound 99]	180 to 181 °C (dec.)	20.5	30	25.3	–	–
CNC(=C[N+](=O)[O-])NNc1ccc([N+](=O)[O-])cc1 [compound 13]	186 °C (dec.)	20.1	16.1	18.1	–	–
CNC(=C[N+](=O)[O-])NNc1c([N+](=O)[O-])c(C)nn1C [Compound No. 30]	164 °C (dec.)	11.3	17.5	14.4	–	–
